# PubChem BioAssay AID1963871 (Molecular Pharmacology Branch, DTP, NCI, 2024)
# “And” between values parts separate entries of the source, which are not always exact repeats. Equal entries are not always repeated.
# System: KRAS-mutant PDC multicell tumor spheroid viability
# Assay: Anticancer human tumor 521955-158-R2-J5-PDC patient-derived pancreatic carcinoma cell line growth inhibition [KRAS2]
# Details: for viability, T/C: stronger effect = lower value
# In short: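 Combination screen of spheroid viability in tumor-cell co-cultures with endothelial (HUVEC) and mesenchymal stem cell stroma. Each agent was tested in half-log dilutions, topping at clinical Cmax or at 10 microM without a known Cmax.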
# [1] = curve of first compound, second compound 0.1 µM
# [2] = curve of first compound, second compound 0.316 µM
# [3] = curve of first compound, second compound 1 µM
# [4] = curve of first compound, second compound 3.16 µM
# [5] = curve of first compound, second compound 10 µM
# [6] = second compound 0.1 µM, first compound 0.0316 µM
# [7] = second compound 0.1 µM, first compound 0.1 µM
# [8] = second compound 0.1 µM, first compound 0.316 µM
# [9] = second compound 0.1 µM, first compound 1 µM
# [10] = second compound 0.1 µM, first compound 3.16 µM
# [11] = second compound 0.1 µM, first compound 10 µM
# [12] = second compound 0.316 µM, first compound 0.0316 µM
# [13] = second compound 0.316 µM, first compound 0.1 µM
# [14] = second compound 0.316 µM, first compound 0.316 µM
# [15] = second compound 0.316 µM, first compound 1 µM
# [16] = second compound 0.316 µM, first compound 3.16 µM
# [17] = second compound 0.316 µM, first compound 10 µM
# [18] = second compound 1 µM, first compound 0.0316 µM
# [19] = second compound 1 µM, first compound 0.1 µM
# [20] = second compound 1 µM, first compound 0.316 µM
# [21] = second compound 1 µM, first compound 1 µM
# [22] = second compound 1 µM, first compound 3.16 µM
# [23] = second compound 1 µM, first compound 10 µM
# [24] = second compound 3.16 µM, first compound 0.0316 µM
# [25] = second compound 3.16 µM, first compound 0.1 µM
# [26] = second compound 3.16 µM, first compound 0.316 µM
# [27] = second compound 3.16 µM, first compound 1 µM
# [28] = second compound 3.16 µM, first compound 3.16 µM
# [29] = second compound 3.16 µM, first compound 10 µM
# [30] = second compound 10 µM, first compound 0.0316 µM
# [31] = second compound 10 µM, first compound 0.1 µM
# [32] = second compound 10 µM, first compound 0.316 µM
# [33] = second compound 10 µM, first compound 1 µM
# [34] = second compound 10 µM, first compound 3.16 µM
# [35] = second compound 10 µM, first compound 10 µM
# [36] = second compound 0.1 µM, first compound 0.000316 µM
# [37] = second compound 0.1 µM, first compound 0.001 µM
# [38] = second compound 0.1 µM, first compound 0.00316 µM
# [39] = second compound 0.1 µM, first compound 0.01 µM
# [40] = second compound 0.316 µM, first compound 0.000316 µM
# [41] = second compound 0.316 µM, first compound 0.001 µM
# [42] = second compound 0.316 µM, first compound 0.00316 µM
# [43] = second compound 0.316 µM, first compound 0.01 µM
# [44] = second compound 1 µM, first compound 0.000316 µM
# [45] = second compound 1 µM, first compound 0.001 µM
# [46] = second compound 1 µM, first compound 0.00316 µM
# [47] = second compound 1 µM, first compound 0.01 µM
# [48] = second compound 3.16 µM, first compound 0.000316 µM
# [49] = second compound 3.16 µM, first compound 0.001 µM
# [50] = second compound 3.16 µM, first compound 0.00316 µM
# [51] = second compound 3.16 µM, first compound 0.01 µM
# [52] = second compound 10 µM, first compound 0.000316 µM
# [53] = second compound 10 µM, first compound 0.001 µM
# [54] = second compound 10 µM, first compound 0.00316 µM
# [55] = second compound 10 µM, first compound 0.01 µM
# 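Further: viability read after seven days of drug exposure.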
smiles,measurement,setting,value
Cn1nccc1Nc1nccc(-c2cc3c(s2)C(C)(C)N(CCN2CCOCC2)C3=O)n1 + CC1OCC2(CCN(c3cnc(Sc4ccnc(N)c4Cl)c(N)n3)CC2)C1N,IC50,[1],493 nM
same,IC50,[2],485 nM
same,IC50,[3],490 nM
same,IC50,[4],602 nM
same,IC50,[5],427 nM
same,"viability, T/C",[6],94.1%
same,"viability, T/C",[7],70.9%
same,"viability, T/C",[8],58.5%
same,"viability, T/C",[9],41.5%
same,"viability, T/C",[10],25%
same,"viability, T/C",[11],19.6%
same,"viability, T/C",[12],69.9%
same,"viability, T/C",[13],62.1%
same,"viability, T/C",[14],58.4%
same,"viability, T/C",[15],38.5%
same,"viability, T/C",[16],25.4%
same,"viability, T/C",[17],15.6%
same,"viability, T/C",[18],73.6%
same,"viability, T/C",[19],66.9%
same,"viability, T/C",[20],57.5%
same,"viability, T/C",[21],38.7%
same,"viability, T/C",[22],24.7%
same,"viability, T/C",[23],15.9%
same,"viability, T/C",[24],71.4%
same,"viability, T/C",[25],63.1%
same,"viability, T/C",[26],63%
same,"viability, T/C",[27],40.4%
same,"viability, T/C",[28],23.3%
same,"viability, T/C",[29],18.4%
same,"viability, T/C",[30],50.9%
same,"viability, T/C",[31],56%
same,"viability, T/C",[32],57.9%
same,"viability, T/C",[33],36%
same,"viability, T/C",[34],27.3%
same,"viability, T/C",[35],18.2%
CC1OCC2(CCN(c3cnc(Sc4ccnc(N)c4Cl)c(N)n3)CC2)C1N (configuration not stated),"viability, T/C",compound 0.0316 µM,84.3% and 94% and 83.1%
same,IC50,"compound alone, run of 09/02/2021",> 10000 nM and 4030 nM
same,IC50,curve of compound,> 10000 nM
CN(C)C/C=C/C(=O)Nc1cc2c(Nc3ccc(F)c(Cl)c3)ncnc2cc1O[C@H]1CCOC1 + COc1cc2nc(C)nc(NC(C)c3cc(N)cc(C(F)(F)F)c3)c2cc1OC1CCOC1,IC50,[1],> 100 nM
same,IC50,[2],> 100 nM
same,IC50,[3],> 100 nM
same,IC50,[4],> 100 nM
same,IC50,[5],> 100 nM
same,"viability, T/C",[36],91.4%
same,"viability, T/C",[37],93.2%
same,"viability, T/C",[38],74.3%
same,"viability, T/C",[39],79.6%
same,"viability, T/C",[6],86.8%
same,"viability, T/C",[7],85%
same,"viability, T/C",[40],78.4%
same,"viability, T/C",[41],84.8%
same,"viability, T/C",[42],63.5%
same,"viability, T/C",[43],74.5%
same,"viability, T/C",[12],80.4%
same,"viability, T/C",[13],61.1%
same,"viability, T/C",[44],79.8%
same,"viability, T/C",[45],99.6%
same,"viability, T/C",[46],82.6%
same,"viability, T/C",[47],69.8%
same,"viability, T/C",[18],84.3%
same,"viability, T/C",[19],77.2%
same,"viability, T/C",[48],91.5%
same,"viability, T/C",[49],93.9%
same,"viability, T/C",[50],88.5%
same,"viability, T/C",[51],71.2%
same,"viability, T/C",[24],77.8%
same,"viability, T/C",[25],71.8%
same,"viability, T/C",[52],90.2%
same,"viability, T/C",[53],82.8%
same,"viability, T/C",[54],86%
same,"viability, T/C",[55],85.4%
same,"viability, T/C",[30],91.8%
same,"viability, T/C",[31],72.7%
COC(=O)c1ccc2c(C(=Nc3ccc(N(C)C(=O)CN4CCN(C)CC4)cc3)c3ccccc3)c(O)[nH]c2c1 + COc1cc2nc(C)nc(NC(C)c3cc(N)cc(C(F)(F)F)c3)c2cc1OC1CCOC1,IC50,[1],2010 nM
same,IC50,[2],2710 nM
same,IC50,[3],1840 nM
same,IC50,[4],1780 nM
same,IC50,[5],< 31.6 nM
same,"viability, T/C",[6],113%
same,"viability, T/C",[7],118%
same,"viability, T/C",[8],118%
same,"viability, T/C",[9],138%
same,"viability, T/C",[10],3.03%
same,"viability, T/C",[11],0.16%
same,"viability, T/C",[12],96.5%
same,"viability, T/C",[13],105%
same,"viability, T/C",[14],100%
same,"viability, T/C",[15],102%
same,"viability, T/C",[16],42.1%
same,"viability, T/C",[17],0.17%
same,"viability, T/C",[18],96.8%
same,"viability, T/C",[19],90.3%
same,"viability, T/C",[20],108%
same,"viability, T/C",[21],102%
same,"viability, T/C",[22],6.39%
same,"viability, T/C",[23],0.16%
same,"viability, T/C",[24],111%
same,"viability, T/C",[25],94.7%
same,"viability, T/C",[26],112%
same,"viability, T/C",[27],99.6%
same,"viability, T/C",[28],0.72%
same,"viability, T/C",[29],0.58%
same,"viability, T/C",[30],17.9%
same,"viability, T/C",[31],15.5%
same,"viability, T/C",[32],2.96%
same,"viability, T/C",[33],0.51%
same,"viability, T/C",[34],0.17%
same,"viability, T/C",[35],0.22%
Cn1ncnc1[C@H]1c2n[nH]c(=O)c3cc(F)cc(c23)N[C@@H]1c1ccc(F)cc1 + C=CC(=O)N1CCN(c2nc(=O)n(-c3c(C)ccnc3C(C)C)c3nc(-c4c(O)cccc4F)c(F)cc23)C(C)C1,IC50,[1],> 100 nM
same,IC50,[2],> 100 nM
same,IC50,[3],> 100 nM
same,IC50,[4],> 100 nM
same,IC50,[5],> 100 nM
same,"viability, T/C",[36],104%
same,"viability, T/C",[37],106%
same,"viability, T/C",[38],89.6%
same,"viability, T/C",[39],96.3%
same,"viability, T/C",[6],87.2%
same,"viability, T/C",[7],79.3%
same,"viability, T/C",[40],109%
same,"viability, T/C",[41],108%
same,"viability, T/C",[42],103%
same,"viability, T/C",[43],80.6%
same,"viability, T/C",[12],82.6%
same,"viability, T/C",[13],86.3%
same,"viability, T/C",[44],103%
same,"viability, T/C",[45],107%
same,"viability, T/C",[46],96.6%
same,"viability, T/C",[47],85.9%
same,"viability, T/C",[18],83.3%
same,"viability, T/C",[19],68.2%
same,"viability, T/C",[48],95.5%
same,"viability, T/C",[49],89.8%
same,"viability, T/C",[50],97.7%
same,"viability, T/C",[51],75.2%
same,"viability, T/C",[24],66.4%
same,"viability, T/C",[25],61.9%
same,"viability, T/C",[52],63.9%
same,"viability, T/C",[53],67.8%
same,"viability, T/C",[54],60.9%
same,"viability, T/C",[55],59.6%
same,"viability, T/C",[30],59.8%
same,"viability, T/C",[31],57.7%
COC(=O)c1ccc2c(C(=Nc3ccc(N(C)C(=O)CN4CCN(C)CC4)cc3)c3ccccc3)c(O)[nH]c2c1,"viability, T/C",compound 0.0316 µM,102% [middle of 5 runs]
same,"viability, T/C",compound 0.1 µM,105% [middle of 5 runs]
same,"viability, T/C",compound 10 µM,0.29% [middle of 5 runs]
same,IC50,curve of compound,2.06 µM [middle of 5 runs]
CC(=O)OC12COC1CC(O)C1(C)C(=O)C(O)C3=C(C)C(OC(=O)C(O)C(NC(=O)OC(C)(C)C)c4ccccc4)CC(O)(C(OC(=O)c4ccccc4)C21)C3(C)C (configuration not stated) + COc1cc2nc(C)nc(NC(C)c3cc(N)cc(C(F)(F)F)c3)c2cc1OC1CCOC1,IC50,[1],< 10 nM
same,IC50,[2],< 10 nM
same,IC50,[3],< 10 nM
same,IC50,[4],< 10 nM
same,IC50,[5],< 10 nM
same,"viability, T/C",[39],25%
same,"viability, T/C",[6],13.7%
same,"viability, T/C",[7],14.5%
same,"viability, T/C",[8],12.4%
same,"viability, T/C",[9],18.4%
same,"viability, T/C",[10],19%
same,"viability, T/C",[43],17.5%
same,"viability, T/C",[12],14.1%
same,"viability, T/C",[13],13.6%
same,"viability, T/C",[14],13.2%
same,"viability, T/C",[15],15.3%
same,"viability, T/C",[16],20.2%
same,"viability, T/C",[47],18.6%
same,"viability, T/C",[18],12.9%
same,"viability, T/C",[19],14%
same,"viability, T/C",[20],14.1%
same,"viability, T/C",[21],19.4%
same,"viability, T/C",[22],26.4%
same,"viability, T/C",[51],14%
same,"viability, T/C",[24],14.3%
same,"viability, T/C",[25],12.1%
same,"viability, T/C",[26],12.5%
same,"viability, T/C",[27],17.1%
same,"viability, T/C",[28],19.6%
same,"viability, T/C",[55],18.1%
same,"viability, T/C",[30],13.4%
same,"viability, T/C",[31],14.3%
same,"viability, T/C",[32],14.1%
same,"viability, T/C",[33],14.3%
same,"viability, T/C",[34],18.9%
